Measurements as given in US6737410B1, “Inhibitors of protein farnesyl transferase” (Warner-Lambert Company, priority 1997, dated 2004).
Read-outs that look alike come from different tables or passages of the source.

How the values were obtained:
[1] = molecular target: T1, SF9 affinity purified rat farnesyl protein transferase (Rattus norvegicus, UniProt Q02293+Q04631); experiment: PFT (farnesyl protein transferase) inhibitory activity assay; type: biochemical
T1 construct: made in house; host or cells: Sf9 insect cells
Procedure: The protein:farnesyl transferase (PFT) or farnesyl protein transferase (FPT) inhibitory activity of compounds of the present invention were assayed in HEPES buffer (pH 7.4) containing 5 mM potassium phosphate and 20 μM ZnCl2. The solution also contained 5 mM DTT (dithiothreitol), 5 mM MgCl2, and 0.1% PEG 8000. Assays were performed in 96-well plates (Wallec) and employed solutions composed of varying concentrations of a compound of the present invention in 100% DMSO (dimethylsulfoxide). Upon addition of both substrates, radiolabeled farnesyl pyrophosphate ([1^3H], specific activity 15 to 30 Ci/mmol, final concentration 134 nM) and (biotinyl)-Ahe-Thr-Lys-Cys-Val-Ile-Met ([3aS[3a alpha, 4 beta, 6a alpha]-hexahydro-2-oxo-1H-thieno[3,4-d]imidazole-5-pentanoic acid]-[7-aminoheptanoic acid]-Thr-Lys-Cys-Val-Ile-Met) (Ahe is 7-amino-heptanoic acid, Thr is threonine, Lys is lysine, Cys is cysteine, Val is valine, Ile is isoleucine and Met is methionine) (final concentration 0.2 μM), the enzyme reaction was started by addition of SF9 affinity purified rat farnesyl protein transferase. After incubation at 30° C. for 30 minutes, the reaction was terminated by diluting the reaction 2.5-fold with a stop buffer containing 1.5 M magnesium acetate, 0.2 M H3PO4, 0.5% BSA (bovine serum albumin), and strepavidin beads (Amersham) at a concentration of 1.3 mg/mL. After allowing the plate to settle for 30 minutes at room temperature, radioactivity was quantitated on a microBeta counter (Model 1450, Wallec). The assay was also carried out without 5 mM potassium phosphate.

[2] = tested on: ras protein farnesylation in ras-transformed cells (H-ras-transformed HIH 3T3 cells); experiment: Gel shift assay (inhibition of ras farnesylation in cells); type: cell-based; conditions: for Gel Shift (μM) M.E.D* (minimal effective dose to observe inhibition of ras farnesylation): ras-transformed cells, 18-hour incubation
Procedure: Twenty-four hours after planting 2×10^6 ras-transformed cells per treatment condition, the farnesylation inhibitor is added at varying concentrations. Following an 18-hour incubation period, cells are lysed in phosphate-buffered saline containing 1% Triton X-100, 0.5% sodium deoxycholate, and 0.1% SDS (sodium dodecyl sulfate), pH 7.4 in the presence of several protease inhibitors (PMSF (phenylmethylsulfonylfluoride), antipain, leupeptin, pepstatin A, and aprotinin all at 1 μg/mL). Ras protein is immunoprecipitated from the supernatants by the addition of 3 μg v-H-ras Ab-2 (Y13-259 antibody from Oncogene Science). After overnight immunoprecipitation, 30 μL of a 50% protein G-Sepharose slurry (Pharmacia) is added followed by 45-minute incubation. Pellets are resuspended in 2×tris-glycine loading buffer (Novex) containing 5% β-mercaptoethanol and then denatured by 5 minutes boiling prior to electrophoresis on 14% Tris-glycine SDS gels. Using Western transfer techniques, proteins are transferred to nitrocellulose membranes followed by blocking in blocking buffer. Upon overnight incubation with primary antibody (pan-ras Ab-2 from Oncogene Science), an antimouse HRP (horse radish peroxidase) conjugate secondary antibody (Amersham) is employed for detection of the ras protein. Blots are developed using ECL(enhanced chemiluminescence) techniques (Amersham).

[3] = tested on: H61 cells: N1H transformed 3T3 H-ras cells; experiment: Clonogenic assay (soft agar, 6 well plates); type: cell-based; conditions: H-ras transformed NIH 3T3 cells, colonies counted after Day 13, read-out: Soft Agar IC50 (μM), inhibition of colony formation
Procedure: Clonogenic Assay (6 Well Plates)
Sometime previous to setting up an actual test:
1. Make up 1.5% Bacto Agar in Milli-Q water and autoclave.
2. Make up 500 mL 2×DMEM-HG without phenol red by combining the following:
1 bottle DMEM base powder (Sigma D-5030)
Adjust pH to 7.1 with HCl; filter sterilize.
1. Set up makeshift water bath (beaker of water with thermometer, on hot plate) in the hood. Keep water temperature between 37° C. to 43° C.
2. […] 1.5% Bacto Agar for approximately 2 minutes on high, or until completely melted. Then let it cool somewhat before using it. (You can keep it from resolidifying by setting the bottle on the hot plate.)
Depending on the volume of each layer needed, use either 50 mL conical tubes or 200 mL turnip tubes which can be floated in the “water bath”.
4. Add 1 mL of bottom layer agar/medium to each well: deliver 1 mL warm agar/medium to a well; then using the tip of the pipet, spread the agar/medium around to completely cover the bottom. Repeat with next well.
5. Allow the plates to set at room temperature for about 5 minutes until the bottom layer solidifies.
6. Label sterile Falcon 2054 (12×75 mm) tubes and add appropriate volume of drug solutions into them.
7. Aliquot 4 μL of DMSO or drug solution per 1 mL of agar/medium to appropriate tubes; then add the agar/medium/cells to each tube. Always add 1 mL more than will actually be needed. Mix up and down in the pipet (gently); then deliver 1 mL to the center of each well. The upper layer is less viscous, so it will generally spread out over the bottom layer unaided. If necessary, rotate the plane of the plate gently to spread the top layer evenly over the bottom layer.
8. Let plates set for 5 or 10 minutes at room temperature to solidify, then put into 5% CO2, 37° C. incubator.
9. On Day 13, add 0.5 mL of INT (tetrazolium 1 mg/mL in Milli-Q H2O, filter sterilized) and return plates to incubator.

[4] = tested on: EJ-1 human bladder carcinoma, HT1080 human fibrosarcoma, and human colon carcinoma xenografts; conditions: 100 mg/kg, nude mice; cited from earlier work
[5] = tested on: human lung carcinoma with K-ras mutation and p53 deletion; conditions: nude mice; cited from earlier work
[6] = tested on: mammary and salivary carcinomas; conditions: daily administration, ras transgenic mice; cited from earlier work
[7] = HEPES buffer pH 7.4, without 5 mM potassium phosphate, read-out: IC50 (μM) Hepes
[8] = HEPES buffer pH 7.4 containing 5 mM potassium phosphate, read-out: IC50 (μM) 5 mM PO4•^2 Hepes
[9] = Example 2 compared with Example 1

SMILES	IC50 [1, 7] [µM]	IC50 [1, 8] [µM]	Gel Shift (μM) M.E.D* (minimal effective dose to observe inhibition of ras farnesylation) [2]	further results
CN(C(=O)[C@@H](Cc1c[nH]cn1)NC(=O)OCc1ccccc1)[C@@H](Cc1ccc(OCc2ccccc2)cc1)C(=O)NCCOCc1ccccc1 (relative stereo) [Example 1, [R-(R*,S*)]-[1-{[1-(2-Benzyloxy-ethylcarbamoyl)-2-(4-benzyloxy-phenyl)-ethyl]-methyl-carbamoyl}-2-(1H-imidazol-4-yl)-ethyl]-carbamic acid benzyl ester]	7	0.4	1 µM	activity as a ras farnesyl transferase inhibitor ([1]; stated in words): submicromolar; IC50 [3]: 15.1 µM
CN(C(=O)[C@H](Cc1c[nH]cn1)NC(=O)OCc1ccccc1)[C@@H](Cc1ccc(OCc2ccccc2)cc1)C(=O)NCCc1ccccc1 (relative stereo) [Example 2, [S-(R*,R*)]-[1-{[2-(4-Benzyloxy-phenyl)-1-phenethylcarbamoyl-ethyl]-methyl-carbamoyl}-2-(1H-imidazol-4-yl)-ethyl]-carbamic acid benzyl ester]	1.4	0.032	0.2 µM	increase in activity against the enzyme [1, 9]: 10 fold; increase in cellular activity [2, 9]: 5 fold; IC50 [3]: 0.58 µM
CN(C(=O)[C@H](Cc1cnc[nH]1)NC(=O)OCc1ccccc1)[C@@H](Cc1ccc(OCc2ccccc2)cc1)C(=O)NCC1(c2ccccc2)CCC1 (relative stereo) [Example 6, [S-(R*,R*)]-[1-{[2-4-Benzyloxy-phenyl)-1-[(1-phenyl-cyclobutylmethyl)-carbamoyl]-ethyl}-methyl-carbamoyl)-2-(3H-imidazol-4-yl)-ethyl]-carbamic acid benzyl ester]	1.01	0.013	≦0.05 μM	–
CN(C(=O)[C@H](Cc1c[nH]cn1)NC(=O)OCc1ccccc1)[C@@H](Cc1ccc(OCc2ccccc2)cc1)C(=O)NCC(C)(C)c1ccccc1 [Example 3, [S-(R*,R*)]-[1-{[2-(4-Benzyloxy-phenyl)-1-(2-methyl-2-phenyl-propylcarbamoyl)-ethyl]-methyl-carbamoyl}-2-(1H-imidazol-4-yl)-ethyl]-carbamic acid benzyl ester]	0.31	0.007	0.05 µM	IC50 ([3]; Mus musculus, NIH3T3, 312 h): 0.1 µM
CN(C(=O)[C@H](Cc1c[nH]cn1)NC(=O)OCc1ccccc1)[C@@H](Cc1ccc(OCc2ccccn2)cc1)C(=O)NCC(C)(C)c1ccccc1 [Example 4, [S-(R*,R*)]-[2-(1H-Imidazol-4-yl)-1-(methyl-{1-(2-methyl-2-phenyl-propylcarbamoyl)-2-[4-(pyridin-2-ylmethoxy)-phenyl]-ethyl}-carbamoyl)-ethyl]-carbamic acid benzyl ester]	0.38	0.006	≦0.05 μM	–
CN(Cc1ccccc1)C(=O)N[C@@H](Cc1c[nH]cn1)C(=O)N(C)[C@@H](Cc1ccc(OCc2ccccc2)cc1)C(=O)NCC(C)(C)c1ccccc1 [Example 5, [S-(R*,R*)]-2(3-Benzyl-3-methyl-ureido)-N-[2-(4-benzyloxy-phenyl)-1-(2-methyl-2-phenyl-propyl-carbamoyl)-ethyl]-3-(1H-imidazol-4-yl)-N-methyl-propionamide]	0.012	0.008	≦0.05 μM	–
CN(C(=O)[C@H](Cc1cnc[nH]1)NC(=O)OCc1ccccc1)[C@@H](Cc1ccccc1)C(=O)NCC(C)(C)c1ccccc1 [Example 7, [S-(R*,R*)]-(2-(3H-Imidazol-4-yl)-1-{methyl-[1-(2-methyl-2-phenyl-propyl-carbamoyl)-2-phenyl-ethyl]-carbamoyl}-ethyl)-carbamic acid benzyl ester]	0.26	0.005	≦0.05 μM	–
CC(C)C[C@@H](C(=O)NCC(C)(C)c1ccccc1)N(C)C(=O)[C@H](Cc1cnc[nH]1)NC(=O)OCc1ccccc1 [Example 8, [S-(R*,R*)]-(2-(3H-Imidazol-4-yl)-1-{methyl-[3-methyl-1-(2-methyl-2-phenyl-propylcarbamoyl)-butyl]-carbamoyl}-ethyl)-carbamic acid benzyl ester]	1.76	0.01	≦0.05 μM	–
COC(=O)[C@H](CCSC)NC(=O)[C@H](/C=C\[C@@H](/C=C/[C@@H](N)CS)C(C)C)Cc1ccccc1 [Example B1086]	–	–	–	tumor growth by xenografts [4]: inhibit tumor growth
CSCC[C@H](NC(=O)c1ccc(NC[C@@H](N)CS)cc1-c1ccccc1)C(=O)O [FT1276]	–	–	–	tumor growth of human lung carcinoma [5]: selectively block tumor growth
CC[C@H](C)[C@@H](CO[C@@H](Cc1ccccc1)C(=O)N[C@@H](CCS(C)(=O)=O)C(=O)OC(C)C)NC[C@@H](N)CS [L744,832]	–	–	–	effect on mammary and salivary carcinomas [6]: tumor regression
